The nature of this series: gradient 5% acetonitrile 3 min, to 50% in 2 min, to 85% in 15 min, held 3 min, 100 µL/min. The settings on record: column: Zorbax Extend-C18 2.1 x 50 mm; eluents: water / acetonitrile, 0.1% formic acid. In a few lines:
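Retention time was recorded from adduct peaks, which were picked computationally and each inspected manually. Pure standards ran in mixtures of ~100 molecules on HPLC coupled to a quadrupole time-of-flight mass spectrometer, in positive and negative ionization mode, through a Zorbax Extend-C18 column (2.1 × 50 mm, 1.8 μm) at 100 μL/min. Eluents were water and acetonitrile, each with 0.1% formic acid.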
Take `Cc1ccc(-c2cc(C(=O)N3CCC(NC(=O)c4cc(C5CC5)[nH]n4)CC3)[nH]n2)cc1C`: the RP-LC retention time came out at 698 s.

`Cc1nc2c(ccc3nc(NC(=O)c4ccc(N5C(=O)CCC5=O)cc4)sc32)s1`: the RP-LC retention time came to 717 s.

Regarding `CC1CCCCN1CCCNC(=O)Cn1ccc2cc(S(=O)(=O)N3CCCCCC3)ccc21` (stereo not drawn), the RP-LC retention time was determined as 682 s.

As to `O=C(Nc1cc(F)cc(F)c1)NC1CCN(c2ccccc2)C1=O` (stereo not drawn), the RP-LC retention time is 851 s.

For `COc1ccc(NC(=O)C2CC(=O)N(c3ccc4c(c3)CCN4C(C)=O)C2)c(OC)c1` (stereo not drawn), the RP-LC retention time worked out at 675 s.

As to `O=C(Cc1ccc2ccccc2c1)Nc1nnc(-c2ccno2)o1`, the RP-LC retention time is 558 s.

The molecule `CCOC(=O)c1ccc(NC(=O)C2CCC(=O)N2S(=O)(=O)c2ccc(C)c(C)c2)cc1` (stereo not drawn) yielded an RP-LC retention time of 978 s.

Regarding `CC(C)NC(=O)N1CC(c2nc(-c3cccnc3)no2)C2(CCOCC2)C1` (stereo not drawn), the RP-LC retention time is 635 s.

For `CC(C)(C)c1ccc2oc(CN3CCN(C(=O)NCc4ccccc4)CC3)nc2c1`, the RP-LC retention time is 842 s.

In the case of `CN1CCCc2cc(CCNC(=O)C(=O)NCCC3=CCCCC3)ccc21`, the RP-LC retention time came out at 842 s.

In turn, `COc1ccccc1Cc1noc(C2CN(C(=O)c3cc(C4CC4)on3)C2)n1` yielded an RP-LC retention time of 876 s.

The molecule `CCCCn1c(=O)c2ccccc2n(Cc2nc(-c3ccccc3Cl)no2)c1=O` gave an RP-LC retention time of 1160 s.

`CCS(=O)(=O)c1ccc(C(=O)Nc2nnc(Cc3ccc(Cl)s3)o2)cc1` showed an RP-LC retention time of 735 s.

As to `COc1ccc2c(Sc3ccccc3)c(C(=O)N3CCN(c4ccccn4)CC3)[nH]c2c1`, the RP-LC retention time was 750 s.

`Cc1oc(-c2[nH]ncc2C(=O)N(C)C)cc1S(=O)(=O)NCc1ccco1` yielded an RP-LC retention time of 622 s.

In the case of `O=C(Cc1ccsc1)Nc1ccc2c(N3CCOCC3)ncnc2c1`, the RP-LC retention time amounted to 619 s.

In turn, `Cn1c(=O)n(CC(=O)NC2CCCCC2)c(=O)c2cnc(-c3ccc(Cl)cc3)nc21` showed an RP-LC retention time of 1070 s.

The molecule `CCOc1ccc(-c2nc(CSCC(=O)NCc3cccs3)c(C)o2)cc1` registered an RP-LC retention time of 1030 s.

`Cc1ccc(C2c3[nH]c4ccccc4c3CCN2C(=O)c2ccnn2C)cc1` (stereo not drawn) displayed an RP-LC retention time of 673 s.

The molecule `Cc1nccn1CCNC(=O)C(=O)Nc1ccc(OC(F)(F)F)cc1` yielded an RP-LC retention time of 580 s.

For the molecule `Cc1ccc(NC(=O)Nc2ccc3nncn3c2)cc1C`, the RP-LC retention time was determined as 730 s.

Consider `O=C(CSc1cc(NCc2ccc(Cl)cc2)ncn1)Nc1ccc(F)cc1F`, for which the RP-LC retention time was 988 s.

`CCOC(=O)c1nc(NCCCN2CCN(Cc3ccccc3)CC2)c2ccccc2n1` registered an RP-LC retention time of 588 s.

In turn, `O=C(Nc1ccc(Cl)cc1)c1csc(-c2ccc(N3CCCC3)nc2)n1` had an RP-LC retention time of 837 s.

`COc1ccc(OC)c(NC(=O)c2cc3c(=O)n(CC(C)C)c4ccccc4n3n2)c1` yielded an RP-LC retention time of 1240 s.

Molecule `CC1CN=C2C=C(N3CCN(C(=O)Nc4ccc(Cl)cc4F)CC3)N=CN21` (stereo not drawn) had an RP-LC retention time of 630 s.

For `COc1cccc(CNC(=O)C2CCN(c3nnc4c(Cl)cccn34)CC2)c1`, the RP-LC retention time amounted to 683 s.

In turn, `CCN(CC)CCNS(=O)(=O)c1cc(-c2cc(C)[nH]n2)sc1C` had an RP-LC retention time of 589 s.

With `NS(=O)(=O)c1ccc(CCNCc2ccc(-c3ccccc3F)o2)cc1`, the RP-LC retention time turned out to be 643 s.

With `CCN1c2ccccc2C(=O)NC12CCN(C(=O)c1ccccc1F)CC2`, the RP-LC retention time amounted to 749 s.

Consider `Cc1nc(-c2cccc(NC(=O)CCCn3cnc(-c4ccc(F)cc4)cc3=O)c2)cs1`, for which the RP-LC retention time worked out at 768 s.

The molecule `Cc1cccc(-n2c(=O)c3c(cc(C)n3C)n(CC(=O)Nc3c(C)cc(C)cc3C)c2=O)c1` yielded an RP-LC retention time of 914 s.

`O=C(NCc1ccccc1)C1CCCN(S(=O)(=O)c2cc(-c3noc(C4CCC4)n3)cs2)C1` (stereo not drawn): the RP-LC retention time turned out to be 1080 s.

Regarding `CN1C(=O)c2[nH]nc(-c3ccccc3)c2C1c1cccc(O)c1` (stereo not drawn), the RP-LC retention time is 687 s.

In turn, `Cc1cc(N2CCOCC2)nc(N2CCN(S(=O)(=O)c3ccc(-c4ccccc4)cc3)CC2)n1` showed an RP-LC retention time of 803 s.

Molecule `CC1CCN(c2nn(CC(=O)NCc3cccs3)c(=O)c3ccccc23)CC1` yielded an RP-LC retention time of 1030 s.

Molecule `CS(=O)(=O)N1CC(C(=O)Nc2ccc3c(c2)OCCO3)C2(CCCCC2)C1` (stereo not drawn) showed an RP-LC retention time of 847 s.

For the molecule `Cc1ccc(NC(=O)Cn2c(=O)n(-c3ccc(F)cc3)c(=O)c3c2cc(C)n3C)cc1F`, the RP-LC retention time worked out at 882 s.

Consider `CCN1c2ccc(F)cc2C(=O)NC12CCN(C(=O)Cc1ccccc1C)CC2`, for which the RP-LC retention time was determined as 846 s.

`COc1nccnc1N1CCC(N(C)C(=O)c2ccc(C)s2)C1` (stereo not drawn) had an RP-LC retention time of 785 s.

`O=C(Nc1cccc(N2CC(C(=O)Nc3ccc(C(F)(F)F)cc3)CC2=O)c1)C1CCC1` (stereo not drawn) returned an RP-LC retention time of 880 s.

Take `COc1ccc(C2CC(=O)N(c3ccc(F)cc3)C(=O)C2)cc1OC`: the RP-LC retention time came to 801 s.

`Cc1ccc(NC(=O)Cn2c(=O)nc(N3CCC(C)CC3)c3ccccc32)cc1C` came in with an RP-LC retention time of 909 s.

`O=C(Nc1ccccn1)C1CCN(C(=O)C2Sc3ccccc3NC2=O)CC1` (stereo not drawn) yielded an RP-LC retention time of 622 s.

`C=CCN1CCN(C(=O)C2CCN(c3nc(NC(C)=O)c(C(=O)N4CCCC4)s3)CC2)CC1` had an RP-LC retention time of 579 s.

In turn, `CCOc1ccc(N2C(=O)C3N=NN(Cc4nc(-c5ccccc5Cl)no4)C3C2=O)cc1` (stereo not drawn) registered an RP-LC retention time of 996 s.

As for `O=C(NCc1ccccc1)C1CC(=O)N(C2CN(Cc3ccc(C(F)(F)F)cc3)C2)C1` (stereo not drawn), the RP-LC retention time is 666 s.

For `CCc1nn2c(CNC(=O)c3ccn(CC)n3)c(-c3ccccc3)nc2s1`, the RP-LC retention time worked out at 822 s.

In the case of `Cc1cc(NC(=O)Nc2cc(Cl)ccc2C)no1`, the RP-LC retention time amounted to 972 s.

The molecule `CCn1cnc(S(=O)(=O)N2CCC(C(=O)Nc3cccc4c3CCCC4)CC2)c1` had an RP-LC retention time of 792 s.

`NC(=O)CCSc1nnc(SCC(=O)c2ccccc2)s1`: the RP-LC retention time came out at 675 s.

As for `CN1C/C=C/CCOc2cccc(c2)-c2ccnc(n2)Nc2cccc(c2)C1`, the RP-LC retention time is 742 s.

In the case of `COc1cccc(NC(=O)N2CCc3cn(C)c4cccc(c34)C2)c1`, the RP-LC retention time stood at 771 s.

Molecule `Cc1ccc(SCC(=O)Nc2nnc(Cc3ccc4c(c3)OCO4)o2)cc1` displayed an RP-LC retention time of 780 s.

In turn, `CCC(=O)N1c2ccc(S(=O)(=O)N3CCCCC3)cc2CC1C(=O)NCc1ccc(C)cc1` (stereo not drawn) displayed an RP-LC retention time of 955 s.

In the case of `Cc1nnc(-c2coc(S(=O)(=O)N3CCCCCC3)c2)o1`, the RP-LC retention time came to 824 s.

`Cc1cc(N2CCN(C(=O)Nc3ccccc3C)CC2)nc(N2CCCC2)n1` came in with an RP-LC retention time of 651 s.

`Cc1[nH]c(C(=O)Nc2ccc(F)cc2F)c(C)c1S(=O)(=O)N1CCCCC1` displayed an RP-LC retention time of 949 s.

For the origin of these results see the METLIN SMRT retention time set (Domingo-Almenara et al. 2019).
